Source: paper PMC4876928 (Clinical cancer research : an official journal of the …, 2016)

Experiment: Phase I safety and tolerability: DLTs, MTD, adverse events
Format: in vivo, human

Compound: Cc1c(CN2CCN(C(=O)[C@H](C)O)CC2)sc2c(N3CCOCC3)nc(-c3cnc(N)nc3)nc12 [apitolisib]
- Decreased appetite, treatment related AE, n (%) (30mg 28/28d (n=27), G3): 0
- Diarrhea, treatment related AE, n (%) (30mg 28/28d (n=27), G3): 2 (7%)
- Dry skin, treatment related AE, n (%) (30mg 28/28d (n=27), G3): 0
- Fatigue, treatment related AE, n (%) (30mg 28/28d (n=27), G3): 4 (15%)
- Hyperglycemia, treatment related AE, n (%) (30mg 28/28d (n=27), G3): 1 (4%)
- Liver dysfunction (abnormal LFTs), treatment related AE, n (%) (30mg 28/28d (n=27), G3): 1 (4%)
- Mucosal inflammation, treatment related AE, n (%) (30mg 28/28d (n=27), G3): 0
- Nausea, treatment related AE, n (%) (30mg 28/28d (n=27), G3): 1 (4%)
- Patients with any AE related to apitolisib, n (%) (30mg 28/28d (n=27), G3): 14 (52%)
- Pneumonitis, treatment related AE, n (%) (30mg 28/28d (n=27), G3): 1 (4%)
- Pruritus, treatment related AE, n (%) (30mg 28/28d (n=27), G3): 0
- Rash (maculopapular, pruritic, macular, erythematous, generalized), treatment related AE, n (%) (30mg 28/28d (n=27), G3): 5 (19%)
- Vomiting, treatment related AE, n (%) (30mg 28/28d (n=27), G3): 0
- Decreased appetite, treatment related AE, n (%) (30mg 28/28d (n=27), ≤G2): 13 (48%)
- Diarrhea, treatment related AE, n (%) (30mg 28/28d (n=27), ≤G2): 16 (59%)
- Dry skin, treatment related AE, n (%) (30mg 28/28d (n=27), ≤G2): 7 (26%)
- Fatigue, treatment related AE, n (%) (30mg 28/28d (n=27), ≤G2): 15 (56%)
- Hyperglycemia, treatment related AE, n (%) (30mg 28/28d (n=27), ≤G2): 0
- Liver dysfunction (abnormal LFTs), treatment related AE, n (%) (30mg 28/28d (n=27), ≤G2): 1 (4%)
- Mucosal inflammation, treatment related AE, n (%) (30mg 28/28d (n=27), ≤G2): 3 (11%)
- Nausea, treatment related AE, n (%) (30mg 28/28d (n=27), ≤G2): 11 (41%)
- Patients with any AE related to apitolisib, n (%) (30mg 28/28d (n=27), ≤G2): 12 (44%)
- Pneumonitis, treatment related AE, n (%) (30mg 28/28d (n=27), ≤G2): 3 (11%)
- Pruritus, treatment related AE, n (%) (30mg 28/28d (n=27), ≤G2): 2 (7%)
- Rash (maculopapular, pruritic, macular, erythematous, generalized), treatment related AE, n (%) (30mg 28/28d (n=27), ≤G2): 12 (44%)
- Vomiting, treatment related AE, n (%) (30mg 28/28d (n=27), ≤G2): 5 (19%)
- Decreased appetite, treatment related AE, n (%) (30mg 28/28d (n=27), ≥G4): 0
- Diarrhea, treatment related AE, n (%) (30mg 28/28d (n=27), ≥G4): 0
- Dry skin, treatment related AE, n (%) (30mg 28/28d (n=27), ≥G4): 0
- Fatigue, treatment related AE, n (%) (30mg 28/28d (n=27), ≥G4): 0
- Hyperglycemia, treatment related AE, n (%) (30mg 28/28d (n=27), ≥G4): 1 (4%)
- Liver dysfunction (abnormal LFTs), treatment related AE, n (%) (30mg 28/28d (n=27), ≥G4): 0
- Mucosal inflammation, treatment related AE, n (%) (30mg 28/28d (n=27), ≥G4): 0
- Nausea, treatment related AE, n (%) (30mg 28/28d (n=27), ≥G4): 0
- Patients with any AE related to apitolisib, n (%) (30mg 28/28d (n=27), ≥G4): 1 (4%)
- Pneumonitis, treatment related AE, n (%) (30mg 28/28d (n=27), ≥G4): 0
- Pruritus, treatment related AE, n (%) (30mg 28/28d (n=27), ≥G4): 0
- Rash (maculopapular, pruritic, macular, erythematous, generalized), treatment related AE, n (%) (30mg 28/28d (n=27), ≥G4): 0
- Vomiting, treatment related AE, n (%) (30mg 28/28d (n=27), ≥G4): 0
- DLTs, Description (40 mg 21/28 d, stage 1): G4 fasting hyperglycemia
- Decreased appetite, treatment related AE, n (%) (40mg 28/28d (n=51), G3): 0
- Diarrhea, treatment related AE, n (%) (40mg 28/28d (n=51), G3): 5 (10%)
- Dry skin, treatment related AE, n (%) (40mg 28/28d (n=51), G3): 1 (2%)
- Fatigue, treatment related AE, n (%) (40mg 28/28d (n=51), G3): 2 (4%)
- Hyperglycemia, treatment related AE, n (%) (40mg 28/28d (n=51), G3): 9 (18%)
- Liver dysfunction (abnormal LFTs), treatment related AE, n (%) (40mg 28/28d (n=51), G3): 6 (12%)
- Mucosal inflammation, treatment related AE, n (%) (40mg 28/28d (n=51), G3): 3 (6%)
- Nausea, treatment related AE, n (%) (40mg 28/28d (n=51), G3): 1 (2%)
- Patients with any AE related to apitolisib, n (%) (40mg 28/28d (n=51), G3): 26 (51%)
- Pneumonitis, treatment related AE, n (%) (40mg 28/28d (n=51), G3): 2 (4%)
- Pruritus, treatment related AE, n (%) (40mg 28/28d (n=51), G3): 1 (2%)
- Rash (maculopapular, pruritic, macular, erythematous, generalized), treatment related AE, n (%) (40mg 28/28d (n=51), G3): 7 (14%)
- Vomiting, treatment related AE, n (%) (40mg 28/28d (n=51), G3): 1 (2%)
- Decreased appetite, treatment related AE, n (%) (40mg 28/28d (n=51), ≤G2): 11 (22%)
- Diarrhea, treatment related AE, n (%) (40mg 28/28d (n=51), ≤G2): 23 (45%)
- Dry skin, treatment related AE, n (%) (40mg 28/28d (n=51), ≤G2): 7 (14%)
- Fatigue, treatment related AE, n (%) (40mg 28/28d (n=51), ≤G2): 34 (67%)
- Hyperglycemia, treatment related AE, n (%) (40mg 28/28d (n=51), ≤G2): 5 (10%)
- Liver dysfunction (abnormal LFTs), treatment related AE, n (%) (40mg 28/28d (n=51), ≤G2): 2 (4%)
- Mucosal inflammation, treatment related AE, n (%) (40mg 28/28d (n=51), ≤G2): 15 (29%)
- Nausea, treatment related AE, n (%) (40mg 28/28d (n=51), ≤G2): 22 (43%)
- Patients with any AE related to apitolisib, n (%) (40mg 28/28d (n=51), ≤G2): 20 (39%)
- Pneumonitis, treatment related AE, n (%) (40mg 28/28d (n=51), ≤G2): 1 (2%)
- Pruritus, treatment related AE, n (%) (40mg 28/28d (n=51), ≤G2): 13 (25%)
- Rash (maculopapular, pruritic, macular, erythematous, generalized), treatment related AE, n (%) (40mg 28/28d (n=51), ≤G2): 20 (39%)
- Vomiting, treatment related AE, n (%) (40mg 28/28d (n=51), ≤G2): 10 (20%)
- Decreased appetite, treatment related AE, n (%) (40mg 28/28d (n=51), ≥G4): 0
- Diarrhea, treatment related AE, n (%) (40mg 28/28d (n=51), ≥G4): 0
- Dry skin, treatment related AE, n (%) (40mg 28/28d (n=51), ≥G4): 0
- Fatigue, treatment related AE, n (%) (40mg 28/28d (n=51), ≥G4): 0
